The data set deals with DGAT2. The following applies: ASO.

“And” between values parts separate entries of the source, which are not always exact repeats. Equal entries are not always repeated. After the bases stand the sugars from the 5' end (letter, count) and the backbone: PS all phosphorothioate, else s phosphorothioate and o phosphodiester by linkage. Methylation of C is not given here. e = 2'-O-(2-methoxyethyl) (MOE); d = 2'-deoxy (DNA)

Turning to “AAAGGAGTTTGTGTTTCCCA (sugars e5 d10 e5, PS)”, the target mRNA inhibition runs as follows: (HepG2, 2.5 µM) 73%; (HepG2, 10 µM) 91%.
Sequence “AAATGGTAGCCCCTTGTTGC (sugars e5 d10 e5, PS)” had a target mRNA inhibition (HepG2, 0.12 µM) of 32%.
“AACACTCACAGCACTTTACC (sugars e5 d10 e5, PS)” had a target mRNA inhibition (HepG2, 0.12 µM) of 4%.
Turning to “AACCAACTCTCAGCTACTCC (sugars e5 d10 e5, PS)”, the target mRNA inhibition was 82% and 71% (HepG2, 2.5 µM); 93% and 97% (HepG2, 10 µM).
As to “AAGCCCTTGCGGTTCCGCAG (sugars e5 d10 e5, PS)”, the target mRNA inhibition (HepG2, 0.12 µM) turned out to be 67%.
Consider “AAGCCTGGATGGTGGTTGCA (sugars e5 d10 e5, PS)”, for which the target mRNA inhibition was 82% and 66% (HepG2, 2.5 µM); 91% and 82% (HepG2, 10 µM).
For “AAGGCACCCAGGCCCATGAT (sugars e5 d10 e5, PS)”, the target mRNA inhibition (HepG2, 0.12 µM) came out at 46%.
The same measure, in the same setting: for “AAGGCCAGGCCCCTTCTGAA (sugars e5 d10 e5, PS)” the value was 32%.
As for “AATGCCAATGCCTAGGTCAC (sugars e5 d10 e5, PS)”, the target mRNA inhibition was 72% (HepG2, 2.5 µM) and 90% (HepG2, 10 µM).
Take “ACAATGGGAATGGTATCGCA (sugars e5 d10 e5, PS)”: the target mRNA inhibition is, setting by setting: (HepG2, 2.5 µM) 59%; (HepG2, 10 µM) 92%.
In the case of “ACACGCAGACCAGGACAGCT (sugars e5 d10 e5, PS)”, the target mRNA inhibition (HepG2, 0.12 µM) was determined as 46%.
As to “ACAGCAGCAGTCTAATCCAT (sugars e5 d10 e5, PS)”, the target mRNA inhibition is, setting by setting: (HepG2, 2.5 µM) 57%; (HepG2, 10 µM) 87%.
The matching figures for “ACAGCTGTGATGACTTCCCA (sugars e5 d10 e5, PS)”: 88% and 77%.
“ACAGGACCCACTGGAGCACT (sugars e3 d14 e3, PS)” yielded a target mRNA inhibition (HepG2, 0.12 µM) of 61%.
“ACCAACTCTCAGCTACTCCC (sugars e5 d10 e5, PS)” gave a target mRNA inhibition (HepG2, 2.5 µM) of 95% and a target mRNA inhibition (HepG2, 10 µM) of 85%.
The matching figures for “ACCACTGTTGCTGAGCTCAT (sugars e5 d10 e5, PS)”: 67% and 90%.
On to “ACCAGGGCCTCCATGTACAT (sugars e3 d14 e3, PS)”, for which the target mRNA inhibition is 84% (HepG2, 0.12 µM); 27% and 24% (HepG2, 2.5 µM); 63% and 50% (HepG2, 10 µM); 26% (HepG2, 20 µM).
On to “ACCAGGGCCTCCATGTACAT (sugars e5 d10 e5, PS)”, for which the target mRNA inhibition (HepG2, 2.5 µM) was determined as 30%; the target mRNA inhibition (HepG2, 10 µM) was 32% and 50%; the target mRNA inhibition (HepG2, 20 µM) stood at 48%.
As for “ACCCACTGGAGCACTGAGAT (sugars e3 d14 e3, PS)”, where the note is “HepG2, 0.12 µM”, the target mRNA inhibition amounted to 59%.
Still for that read-out and setting: then “ACCCACTGGAGCACTGAGAT (sugars e5 d10 e5, PS)”, with 72%; and “ACTGGTCCTGCAGTTTCAGG (sugars e5 d10 e5, PS)”, with 55%.
As for “AGAAAAAGCAACCAAAGCAC (sugars e5 d10 e5, PS)”, the target mRNA inhibition by setting is: (HepG2, 2.5 µM) 19%; (HepG2, 10 µM) 82%.
With “AGAAGAGCAAAGGCTTGCTT (sugars e5 d10 e5, PS)”, the target mRNA inhibition was 74% and 72% (HepG2, 2.5 µM); 94% and 93% (HepG2, 10 µM).
As for “AGAGAGACAATGAGTAAGGG (sugars e5 d10 e5, PS)”, the target mRNA inhibition (HepG2, 2.5 µM) came to 68% and the target mRNA inhibition (HepG2, 10 µM) came to 79%.
“AGAGGCCCTGGACACTGGCC (sugars e5 d10 e5, PS)” had a target mRNA inhibition (HepG2, 0.12 µM) of 32%.
With “AGCAATGCCAATGCCTAGGT (sugars e5 d10 e5, PS)”, the target mRNA inhibition runs as follows: (HepG2, 2.5 µM) 82%; (HepG2, 10 µM) 93%.
For “AGCATTGCCACTCCCATTCT (sugars e3 d14 e3, PS)”, the target mRNA inhibition (HepG2, 0.12 µM) came out at 67%.
Sequence “AGCATTGCCACTCCCATTCT (sugars e5 d10 e5, PS)” registered a target mRNA inhibition (HepG2, 0.12 µM) of 74%.
As to “AGCCTGCCACAGGGCCCTTT (sugars e5 d10 e5, PS)”, the target mRNA inhibition (HepG2, 0.12 µM) was determined as 37%.

Values taken from the OligoGym collection.
